Patent publication US12054483B2, “Small molecule inhibitors of DYRK/CLK and uses thereof” (Arizona Board of Regents on Behalf of the University of …, priority 2018, dated 2024)
pKd: −log10 of the molar value.

target: DYRK1A (Homo sapiens, UniProt Q13627); assay: Affinity testing of compounds with DYRK1A (KD); assay type: binding; details: DYRK1A affinity key classes

Row | SMILES | pKd
1 | Cc1nc2ncc(-c3ccnc(N)c3)nc2n1-c1ccc2[nH]cnc2c1 [Compound 130, 4-(1-(1H-benzo[d]imidazol-5-yl)-2-methyl-1H-imidazo[4,5-b]pyrazin-6-yl)pyridin-2-amine] | 6.30 to 7.00
2 | Cc1nc2ncc(-c3ccnc(N)c3)nc2n1-c1ccc(N2CCOCC2)cc1 [Compound 128, 4-(2-methyl-1-(4-morpholinophenyl)-1H-imidazo[4,5-b]pyrazin-6-yl)pyridin-2-amine] | 5.00 to 6.30
3 | c1cc(-c2ccc3ncc(-c4ccc(CN5CCCC5)cc4)n3n2)ccn1 [Compound 103, 6-(pyridin-4-yl)-3-(4-(pyrrolidin-1-ylmethyl)phenyl)imidazo[1,2-b]pyridazine] | 6.30 to 7.00
4 | Cc1nc2ccc(-c3cc[nH]c(=O)c3)nc2n1-c1ccc(CN2CCOCC2)cc1 [Compound 45, 4-(2-methyl-3-(4-(morpholinomethyl)phenyl)-3H-imidazo[4,5-b]pyridin-5-yl)pyridin-2(1H)-one] | 5.00 to 6.30
5 | Cc1cc(-c2ccc3nc(C)n(-c4ccc(N5CCOCC5)cc4)c3n2)cc(C)n1 [Compound 53, 4-(4-(5-(2,6-dimethylpyridin-4-yl)-2-methyl-3H-imidazo[4,5-b]pyridin-3-yl)phenyl)morpholine] | 5.00 to 6.30
6 | Cc1nc2ccc(-c3ccncc3)nc2n1-c1ccc(CN2[C@H](C)COC[C@@H]2C)cc1 [Compound 117, (3S,5R)-3,5-dimethyl-4-(4-(2-methyl-5-(pyridin-4-yl)-3H-imidazo[4,5-b]pyridin-3-yl)benzyl)morpholine] | 6.30 to 7.00
7 | Fc1cc(-c2cnc3ccc(-c4ccncc4)nn23)ccc1CN1CCCCC1 [Compound 79, 3-(3-fluoro-4-(piperidin-1-ylmethyl)phenyl)-6-(pyridin-4-yl)imidazo[1,2-b]pyridazine] | 6.30 to 7.00
8 | CC(=O)N1CC[C@H](n2c(C)nc3ccc(-c4ccncc4)nc32)C1 [Compound 39, (S)-1-(3-(2-methyl-5-(pyridin-4-yl)-3H-imidazo[4,5-b]pyridin-3-yl)pyrrolidin-1-yl)ethan-1-one] | 6.30 to 7.00
9 | Cc1nc2ccc(-c3ccncc3)nc2n1-c1ccc(C(=O)N2CCOCC2)cc1 [Compound 56, (4-(2-methyl-5-(pyridin-4-yl)-3H-imidazo[4,5-b]pyridin-3-yl)phenyl)(morpholino)methanone] | 6.30 to 7.00
10 | Cc1cc(-c2ccc3ncc(-c4ccc(N5CCOCC5)nc4)n3n2)ccn1 [Compound 80, 4-(5-(6-(2-methylpyridin-4-yl)imidazo[1,2-b]pyridazin-3-yl)pyridin-2-yl)morpholine] | 6.30 to 7.00
11 | Fc1cnccc1-c1ccc2ncc(-c3ccc(CN4CCOCC4)cc3)n2n1 [Compound 105, 4-(4-(6-(3-fluoropyridin-4-yl)imidazo[1,2-b]pyridazin-3-yl)benzyl)morpholine] | 5.00 to 6.30
12 | Cc1cc(-c2ccc3ncc(N4CCN(C5COC5)CC4)n3n2)ccn1 [Compound 84, 6-(2-methylpyridin-4-yl)-3-(4-(oxetan-3-yl)piperazin-1-yl)imidazo[1,2-b]pyridazine] | 5.00 to 6.30
13 | CC(=O)N1CCN(c2ccc(-n3c(C)nc4ccc(-c5ccnc(N)c5)nc43)cc2F)CC1 [Compound 184] | 7.00 to 9.30
14 | Cc1nc2ccc(-c3ccnc(N)c3)nc2n1-c1cccc(CN2CCOCC2)c1 [Compound 153, 4-(2-methyl-3-(3-(morpholinomethyl)phenyl)-3H-imidazo[4,5-b]pyridin-5-yl)pyridin-2-amine] | 7.00 to 9.30
15 | Cc1nc2ccc(-c3ccnc(N)c3)nc2n1-c1ccc(CN2CCOCC2)cc1 [Compound 44, 4-(2-methyl-3-(4-(morpholinomethyl)phenyl)-3H-imidazo[4,5-b]pyridin-5-yl)pyridin-2-amine] | 7.00 to 9.30
16 | O=C(O)c1ccc(-n2cnc3cc(F)c(-c4ccncc4)cc32)cc1 [Compound 8, 4-(5-fluoro-6-(pyridin-4-yl)-1H-benzo[d]imidazol-1-yl)benzoic acid] | 6.30 to 7.00
17 | COC(=O)c1ccc(-n2cnc3cc(F)c(-c4ccncc4)cc32)cc1 [Compound 7, methyl 4-(5-fluoro-6-(pyridin-4-yl)-1H-benzo[d]imidazol-1-yl)benzoate] | 6.30 to 7.00
18 | Cc1nc2ccc(-c3cc[nH]c(=O)c3)nc2n1-c1ccc(N2CCOCC2)cc1 [Compound 54, 4-(2-methyl-3-(4-morpholinophenyl)-3H-imidazo[4,5-b]pyridin-5-yl)pyridin-2(1H)-one] | 5.00 to 6.30
19 | Cc1nc2ccc(-c3ccnc(N)c3)nc2n1-c1ccc(N2CCN(C)CC2)c(F)c1 [Compound 151, 4-(3-(3-fluoro-4-(4-methylpiperazin-1-yl)phenyl)-2-methyl-3H-imidazo[4,5-b]pyridin-5-yl)pyridin-2-amine] | 7.00 to 9.30

The remaining lines, values ahead:

Row | pKd | SMILES
20 | 7.00 to 9.30 | Cc1nc2ccc(-c3ccnc4[nH]ccc34)nc2n1-c1ccc(N2CCOCC2)c(F)c1 [Compound 143, 4-(2-fluoro-4-(2-methyl-5-(1H-pyrrolo[2,3-b]pyridin-4-yl)-3H-imidazo[4,5-b]pyridin-3-yl)phenyl)morpholine]
21 | 7.00 to 9.30 | Cc1nc2ccc(-c3ccncc3)nc2n1-c1ncc(CN2CCCC(F)(F)C2)s1 [Compound 62, 5-((3,3-difluoropiperidin-1-yl)methyl)-2-(2-methyl-5-(pyridin-4-yl)-3H-imidazo[4,5-b]pyridin-3-yl)thiazole]
22 | 7.00 to 9.30 | Cc1nc2ccc(-c3ccnc(N)c3)nc2n1-c1ccc2c(c1)OCC(=O)N2 [Compound 46, 7-(5-(2-aminopyridin-4-yl)-2-methyl-3H-imidazo[4,5-b]pyridin-3-yl)-2H-benzo[b][1,4]oxazin-3(4H)-one]
23 | 7.00 to 9.30 | c1cc(-c2ccc3ncc(-c4ccc5[nH]ccc5c4)n3n2)ccn1 [Compound 77, 3-(1H-indol-5-yl)-6-(pyridin-4-yl)imidazo[1,2-b]pyridazine]
24 | 7.00 to 9.30 | Cc1nc2ccc(-c3ccncc3)nc2n1-c1ccc2[nH]c(C(F)(F)F)nc2c1 [Compound 34, 2-methyl-5-(pyridin-4-yl)-3-(2-(trifluoromethyl)-1H-benzo[d]imidazol-5-yl)-3H-imidazo[4,5-b]pyridine]
25 | 7.00 to 9.30 | Nc1cc(-c2ccc3nccn3n2)ccn1 [Compound 24, 4-(imidazo[1,2-b]pyridazin-6-yl)pyridin-2-amine]
26 | 7.00 to 9.30 | Cc1nc2ccc(-c3cn[nH]c3)nc2n1-c1ccc2c(c1)OCO2 [Compound 30, 3-(benzo[d][1,3]dioxol-5-yl)-2-methyl-5-(1H-pyrazol-4-yl)-3H-imidazo[4,5-b]pyridine]
27 | 7.00 to 9.30 | Cc1nc2ccc(-c3ccncc3)nc2n1-c1ccc(CN2CCN(C3COC3)CC2)cc1 [Compound 63, 2-methyl-3-(4-((4-(oxetan-3-yl)piperazin-1-yl)methyl)phenyl)-5-(pyridin-4-yl)-3H-imidazo[4,5-b]pyridine]
28 | 7.00 to 9.30 | Cc1nc2ccc(-c3ccnc(N)c3)nc2n1-c1ccc(N2C[C@H]3C[C@H]2CO3)nc1 [Compound 160, 4-(3-(6-((1R,4S)-2-oxa-5-azabicyclo[2.2.1]heptan-5-yl)pyridin-3-yl)-2-methyl-3H-imidazo[4,5-b]pyridin-5-yl)pyridin-2-amine]
29 | 7.00 to 9.30 | Cc1nc2ccc(-c3ccnc(N)c3)nc2n1-c1ccc(N2CCOC[C@H]2C)c(F)c1 [Compound 170, (R)-4-(3-(3-fluoro-4-(3-methylmorpholino)phenyl)-2-methyl-3H-imidazo[4,5-b]pyridin-5-yl)pyridin-2-amine]
30 | 7.00 to 9.30 | Cc1nc2ccc(-c3ccnc(N)c3)nc2n1-c1ccc(N2CCS(=O)(=O)CC2)c(F)c1 [Compound 182, 4-(4-(5-(2-aminopyridin-4-yl)-2-methyl-3H-imidazo[4,5-b]pyridin-3-yl)-2-fluorophenyl)thiomorpholine 1,1-dioxide]
31 | 7.00 to 9.30 | Cc1cn2nc(-c3ccnc(N)c3)ccc2n1 [Compound 25, 4-(2-methylimidazo[1,2-b]pyridazin-6-yl)pyridin-2-amine]
32 | 7.00 to 9.30 | Cc1nc2ccc(-c3ccnc(N)c3)nc2n1-c1ccc(N2CCOCC2)nc1 [Compound 158, 4-(2-methyl-3-(6-morpholinopyridin-3-yl)-3H-imidazo[4,5-b]pyridin-5-yl)pyridin-2-amine]
33 | 7.00 to 9.30 | Cc1nc2ccc(-c3ccnc(N)c3)nc2n1-c1cnc(N2CCOCC2)c(Cl)c1 [Compound 166, 4-(3-(5-chloro-6-morpholinopyridin-3-yl)-2-methyl-3H-imidazo[4,5-b]pyridin-5-yl)pyridin-2-amine]
34 | 7.00 to 9.30 | COc1ccc(-n2c(C)nc3ccc(-c4ccncc4)nc32)cc1 [Compound 43, 3-(4-methoxyphenyl)-2-methyl-5-(pyridin-4-yl)-3H-imidazo[4,5-b]pyridine]
35 | 7.00 to 9.30 | Cc1nc2ccc(-c3cnn(C)c3)nc2n1-c1ccc(N2CCOCC2)c(F)c1 [Compound 146, 4-(2-fluoro-4-(2-methyl-5-(1-methyl-1H-pyrazol-4-yl)-3H-imidazo[4,5-b]pyridin-3-yl)phenyl)morpholine]
36 | 7.00 to 9.30 | CC(=O)N1CCc2cc(-n3c(C)nc4ccc(-c5ccnc(N)c5)nc43)ccc21 [Compound 154, 1-(5-(5-(2-aminopyridin-4-yl)-2-methyl-3H-imidazo[4,5-b]pyridin-3-yl)indolin-1-yl)ethan-1-one]
37 | 7.00 to 9.30 | Cc1nc2ccc(-c3ccnc(N)c3)c(F)c2n1-c1ccc(N2CCOCC2)cc1 [Compound 127, 4-(7-fluoro-2-methyl-1-(4-morpholinophenyl)-1H-benzo[d]imidazol-6-yl)pyridin-2-amine]
38 | 7.00 to 9.30 | Cc1nc2ccc(-c3ccncc3)nc2n1-c1ccc(C#N)cn1 [Compound 42, 6-(2-methyl-5-(pyridin-4-yl)-3H-imidazo[4,5-b]pyridin-3-yl)nicotinonitrile]
39 | 7.00 to 9.30 | Fc1c(-c2ccncc2)ccc2ncn(-c3ccc4c(c3)OCO4)c12 [Compound 1, 1-(benzo[d][1,3]dioxol-5-yl)-7-fluoro-6-(pyridin-4-yl)-1H-benzo[d]imidazole]
40 | 7.00 to 9.30 | Cc1nc2ccc(-c3ccncc3)nc2n1-c1ccc(CN2CCS(=O)(=O)CC2)cc1 [Compound 126, 4-(4-(2-methyl-5-(pyridin-4-yl)-3H-imidazo[4,5-b]pyridin-3-yl)benzyl)thiomorpholine 1,1-dioxide]
41 | 7.00 to 9.30 | Cc1cc(-c2ccc3nc(C)n(-c4ccc(N5CCOCC5)c(F)c4)c3n2)ccn1 [Compound 145, 4-(2-fluoro-4-(2-methyl-5-(2-methylpyridin-4-yl)-3H-imidazo[4,5-b]pyridin-3-yl)phenyl)morpholine]
